These results are taken from publication PMC4585835 (Scientific Reports, 2015).

In one data set the target is T1, rat thrombin (Rattus norvegicus, UniProt P18292).
T1 construct: purchased Sigma
The experiment in a line: Inhibition of rat thrombin-catalyzed hydrolysis of Chromozym TH. In kind it is biochemical. The conditions noted are these: 25 °C, pH 7.4.

Data set [1] in a line: Bleeding time test (BT) in rats. It counts as in vivo, rat. The conditions noted are these: 30 min after administration. How it is done:
Bleeding time was determined as reported previously. Male SD rats (180–220 g) were divided into 6 groups (n = 8). […] Thirty minutes after the injection, bleeding was induced by tail transection of the anesthetized rat with a size 21 disposable scalpel blade 2 mm from the tail tip. The bleeding tail was wiped with filter paper every 30 s, and the bleeding time was recorded when no blood was observed on the filter paper.

The nature of data set [2]: Pharmacokinetics in rats, i.v. Particulars: rat, 1 μmol/kg i.v., n = 5; for AUC(0-t): read-out: AUC(0-t) (converted); for MRT last: read-out: MRT0-t (converted); for Vd: read-out: Vss. In kind it is in vivo. The protocol:
SD Rats were randomly divided into three groups (n = 5). […] All blood samples were immediately centrifuged at 5000 rpm for 5 min at room temperature, and the plasma obtained was stored at −20 °C before analysis. To the rat plasma (100 μL) was added 10 μL internal standard (80 ~ 100 ng/ml Carbamazepine), followed by mixing with 200 μL methanol with vortexing for 1 min. At this stage, certain amounts of proteins may precipitate out, thus this mixture was centrifuged at 12,000 rpm for 5 min at room temperature to achieve complete separation. The 20 μl supernatant was injected into a HPLC (Symbiosis, Spark, Holland; column: 50 mm × 2.1 mm, 5 μm, Agilent Eclipse Plus) –MS/MS system (ABI 4000 Q-Trap triple quadrupole mass spectrometer) equipped with electrospray ionization (ESI) source in the positive ion mode (Foster City, USA). The HPLC elution gradient was as follows: 0–0.5 min, 5–5% (B); 0.5–3 min, 5–95% (B); 3–4 min, 95–95% (B); 4–4.06 min, 95–5% (B); 4.06–6 min, 5–5% (B); the flow-rate was 0.4 ml/min; A was 0.1% formic acid/Waterl, B was 0.1% formic acid/methanol. The MS parameters were: CUR10Psi; Ion Spray Voltage (IS) 5500v; Collision activated dissociation (CAD) High, Gas1 = 50 psi, Gas2 = 50 psi, TEM = 500 °C.
All three peptides remained stable in plasma during three freeze/thaw cycles, at room temperature for at least 2 h. The supernatant of plasma samples were also found to be stable for at least 24 h at 10 °C in the autosampler.
The statistical significance of the difference among pharmacokinetic parameters was determined using the mean comparison Student’s t-test, and the resulting P values were lower than 0.05, which is considered to be statistically significant.

The target of a further data set is T2, trypsin (Bos taurus, UniProt P00760).
T2 construct: purchased Roche Corp (Indianapolis, USA)
T2 sequence (P00760 24-246): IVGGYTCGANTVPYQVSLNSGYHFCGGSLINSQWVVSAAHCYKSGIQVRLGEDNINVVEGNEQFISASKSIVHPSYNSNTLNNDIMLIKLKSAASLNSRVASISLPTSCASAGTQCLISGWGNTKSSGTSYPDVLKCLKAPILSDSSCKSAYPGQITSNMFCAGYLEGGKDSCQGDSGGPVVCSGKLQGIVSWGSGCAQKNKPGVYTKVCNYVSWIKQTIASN
The experiment in a line: Degradation mediated by trypsin (HPLC). It counts as in vitro ADME. Particulars: trypsin (119 ng/μL) in Tris-HCl buffer, pH 8.5, 119 μg/ml trypsin, peptide 0.79 mM, 37 °C, read-out: peptide intact after incubation with trypsin. The text has this:
The degradation of peptides mediated by trypsin can be effectively monitored by HPLC analysis. […] The detector wavelength was set at 214 nm.

Data set [3] deals with T3, human thrombin (Homo sapiens, UniProt P00734).
T3 construct: purchased National Institute for the Control of Pharmaceutical and Biological Products (Beijing, China)
The experiment in a line: Degradation mediated by human thrombin (HPLC). In kind it is in vitro ADME. The conditions noted are these: human thrombin (69 NIH/mL) in Tris-HCl buffer, pH 8, 69 NIH/ml human thrombin, peptide 0.41 mM, 37 °C, read-out: peptide remained after reaction with human thrombin. The protocol:
The catalytic cleavage of peptides mediated by thrombin was also examined using the same method. Specifically, a peptide solution (0.41 mM) was first incubated with thrombin (69 NIH/mL) in Tris-HCl buffer (70 mM Tris HCl, NaCl 50 mM, pH = 8.0) at 37 °C.

The target of data set [4] is T3, human thrombin. The experiment in a line: Inhibition of human thrombin-catalyzed hydrolysis of Chromozym TH. It counts as biochemical. Particulars: 25 °C, pH 7.4. How it is done:
The inhibition constant (Ki) was determined as reported previously. A 0.05 mL of peptide solution (concentration 10, 25, 50, 100, 150, 500 and 1000 nM, respectively) was added to 0.4 mL mixture of Hepes buffer (10 mM Hepes, 10 mM Tris, 0.1 M NaCl, 0.1% PEG 6000, pH 7.4) and bovine or human thrombin (0.25 NIH). The resulting solution was incubated at 25 °C for 2 min, followed by the addition of 0.05 mL Chromozym TH (concentration 25, 33, 40, 50, 100, 125, 200, 330, 500, and […], respectively). The absorbance at 405 nm was measured using a Beckman DU640 spectrometer. The inhibition constant (Ki) was determined using the following equation (Eq.1) originally developed for competitive inhibition processes[25]:
Herein, S is the initial substrate concentration; I is the inhibitor concentration; v is the initial steady-state velocity; Vmax is the limiting maximal velocity; and Km is the dissociation constant of the complex.

Data set [5] relates to Trypsin (modified sequencing grade). Description: trypsin (119 ng/μL) in the Tris-HCl buffer (90 mM, pH = 8.5). The conditions noted are these: 37 °C, up to 5 h.
Data set [6] deals with human thrombin. Description: thrombin (69 NIH/mL) in Tris-HCl buffer (70 mM Tris HCl, NaCl 50 mM, pH = 8.0). Particulars: 37 °C, up to 5 h.

Where two headings read alike, the source gives them in different places. Where a SMILES comes first, the peptide text is derived from it. Where no end group is shown, it is not given here. [ ]: non-standard residue; d: D form. The star is where a group is joined. Stearoyl = CCCCCCCCCCCCCCCCCC(=O)*

On rat thrombin, `CC[C@H](C)[C@H](NC(=O)[C@H](CCC(=O)O)NC(=O)[C@H](CCC(=O)O)NC(=O)[C@H](Cc1ccccc1)NC(=O)[C@H](CC(=O)O)NC(=O)CNC(=O)[C@H](CC(N)=O)NC(=O)CNC(=O)CNC(=O)CNC(=O)CNC(=O)[C@@H]1CCCN1C(=O)[C@H](CCCNC(=N)N)NC(=O)[C@@H]1CCCN1C(=O)[C@H](N)Cc1ccccc1)C(=O)N1CCC[C@H]1C(=O)N[C@@H](CCC(=O)O)C(=O)N[C@@H](CCC(=O)O)C(=O)N[C@@H](Cc1ccc(O)cc1)C(=O)N[C@@H](CC(C)C)C(=O)O` [Hirulog-1, reference compound] had a Ki of 20.5 ± 0.62 nM. The “bleeding time (BT)” value in data set [1] (8 mg/kg) turned out to be 525.00 ± 48.11 s. In addition, in data set [2] (SD, plasma, iv, 1 umol/kg), the AUC(0-inf) is 0.415 µM·h, the Cmax turned out to be 3100 ± 1100 nM, the clearance is 42.6 ± 5.2 mL/min/kg and the AUC(0-t) was 0.395 µM·h. Moreover, in data set [2] (SD, plasma, iv, 1 umol/kg), the MRT last was 12.1 min and the Vd stood at 0.522 ± 0.151 L/kg. At trypsin, the remaining at 3 h, 0.79 mM came out at 10% and the remaining at 5 h, 0.79 mM stood at 6%. Further, on human thrombin [3], the remaining at 3 h, 0.41 mM stood at 57% and the remaining at 5 h, 0.41 mM stood at 23%.

For `CC[C@H](C)[C@H](NC(=O)[C@@H]1CCCN1C(=O)[C@H](CCC(=O)O)NC(=O)[C@H](Cc1ccccc1)NC(=O)[C@H](CC(=O)O)NC(=O)CNC(=O)[C@H](CCC(N)=O)NC(=O)CNC(=O)CNC(=O)CNC(=O)CNC(=O)[C@@H]1CCCN1C(=O)[C@H](CCCNC(=N)N)NC(=O)[C@@H]1CCCN1C(=O)[C@H](N)Cc1ccccc1)C(=O)N1CCC[C@H]1C(=O)N[C@@H](CCC(=O)O)C(=O)N[C@@H](CC(=O)O)C(=O)N[C@@H](C)C(=O)N[C@@H](Cc1ccc(O)cc1)C(=O)N[C@@H](CC(=O)O)C(=O)N[C@@H](CCC(=O)O)C(N)=O` [Peptide 1] (H-[dF]PRPGGGGQGDFEPIPEDAYDE-NH2), at rat thrombin, the Ki came to 13.4 ± 0.46 nM. For the same compound, in data set [2] (SD, plasma, iv, 1 umol/kg), the AUC(0-inf) is 0.432 µM·h and the area under the curve AUC(0-t) was 0.428 µM·h. In addition, in data set [2] (in vivo, iv, 1 umol/kg), the Cmax worked out at 2300 ± 400 nM, the clearance is 36.4 ± 3.6 mL/min/kg, the MRT last is 13.9 min and the Vd stood at 0.504 ± 0.0217 L/kg. Also, the half-life in data set [2] (in vivo, iv, 1 umol/kg) was below 16 min. In data set [2], this compound gave a T1/2 of 13.5 ± 2.6 min. Further, at trypsin, the remaining at 3 h, 0.79 mM is 5% and the remaining at 5 h, 0.79 mM turned out to be 1%. Besides, at human thrombin [3], the remaining at 3 h, 0.41 mM was 70% and the remaining at 5 h, 0.41 mM is 46%.

Regarding `CCCCCCCCCCCCCCCCCC(=O)NCCCC[C@H](NC(=O)[C@@H]1CCCN1C(=O)[C@H](CCCNC(=N)N)NC(=O)[C@@H]1CCCN1C(=O)[C@H](N)Cc1ccccc1)C(=O)NCC(=O)NCC(=O)NCC(=O)N[C@@H](CCC(N)=O)C(=O)NCC(=O)N[C@@H](CC(=O)O)C(=O)N[C@@H](Cc1ccccc1)C(=O)N[C@@H](CCC(=O)O)C(=O)N1CCC[C@H]1C(=O)N[C@H](C(=O)N1CCC[C@H]1C(=O)N[C@@H](CCC(=O)O)C(=O)N[C@@H](CC(=O)O)C(=O)N[C@@H](C)C(=O)N[C@@H](Cc1ccc(O)cc1)C(=O)N[C@@H](CC(=O)O)C(=O)N[C@@H](CCC(=O)O)C(N)=O)[C@@H](C)CC` [Peptide S1] (H-[dF]PRPK(Stearoyl)GGGQGDFEPIPEDAYDE-NH2; N-terminus assumed), the Ki stood at 37.4 ± 1.16 nM at rat thrombin and 19.5 ± 0.4 nM at human thrombin [4].

On to `CCCCCCCCCCCCCCCCCC(=O)NCCCC[C@H](NC(=O)CNC(=O)CNC(=O)CNC(=O)[C@@H]1CCCN1C(=O)[C@H](CCCNC(=N)N)NC(=O)[C@@H]1CCCN1C(=O)[C@H](N)Cc1ccccc1)C(=O)N[C@@H](CCC(N)=O)C(=O)NCC(=O)N[C@@H](CC(=O)O)C(=O)N[C@@H](Cc1ccccc1)C(=O)N[C@@H](CCC(=O)O)C(=O)N1CCC[C@H]1C(=O)N[C@H](C(=O)N1CCC[C@H]1C(=O)N[C@@H](CCC(=O)O)C(=O)N[C@@H](CC(=O)O)C(=O)N[C@@H](C)C(=O)N[C@@H](Cc1ccc(O)cc1)C(=O)N[C@@H](CC(=O)O)C(=O)N[C@@H](CCC(=O)O)C(N)=O)[C@@H](C)CC` [Peptide S3] (H-[dF]PRPGGGK(Stearoyl)QGDFEPIPEDAYDE-NH2; N-terminus assumed), for which the Ki was 54.5 ± 0.82 nM at rat thrombin and 11 ± 0.15 nM on human thrombin [4].

For the compound D-FPRP-GGGG-QGDFEEIPEEYL, the cleaved bond result (in data set [5]; with human thrombin [6]) was “Arg-Pro” throughout.

Regarding D-FPRP-GGGG-QGDFEPIPEDAYDE^*, the cleaved bond entry (in data set [5]; in the data set on human thrombin [6]) was “Arg-Pro” in each case.

As for “D-FPRP-GK(stearic acid)GG-QGDFEPIPEDAYDE^* ([dF]PRPGK(Stearoyl)GGQGDFEPIPEDAYDE-NH2)”, the cleaved bond entry (in data set [5]; in the data set with human thrombin [6]) was “Arg-Pro” throughout.

In the case of heparin [reference compound], the “bleeding time (BT)” value in data set [1] (200 IU/kg) was 401 ± 83.23 s.

Broadly, the Ki is a measure of affinity in units of concentration, obtained from inhibition or displacement. A higher Ki goes with a looser hold on the target. In general, AUC(0-inf) refers to total exposure, with the tail of the curve extrapolated. A low value points to low exposure. As usually defined, the Cmax is the highest concentration seen after dosing. A word on the clearance: it is the rate of elimination divided by the concentration. The AUC(0-t) is the area under the concentration-time curve up to a stated or last time point. The half-life is the time needed for the level to fall by half in the phase considered.
